Here are results for three compounds from patent US11291675B2, “6′-sialyllactose for use in the treatment of hearing loss” (Rheinische Friedrich-Wilhelms-Universität Bonn, priority 2017, dated 2022).

One data set concerns human THP-1 macrophages. In words: Beads phagocytosis in LPS-activated THP-1 macrophages (flow cytometry). It is filed as cell-based. Particulars: THP-1 macrophages activated by 3 μg/ml LPS, 24 hours; 0.5 μM test substance; vs LPS alone. On the procedure: The effect of 6′- and 3′-sialyllactose on beads phagocytosis was determined in the human mononuclear phagocyte cell line THP-1. The human mononuclear phagocyte cell line THP-1 was maintained in RPMI medium supplemented with 1% L-glutamine, 1% Penicillin/Streptomycin and 1% heat-inactivated chicken serum, at 5% CO2 and 37° C. For passaging, the cells were transferred to a 50 mL Falcon tube and centrifuged at 1300 rpm for 3 min. The supernatant was removed and the pellet was re-suspended in 5 mL of warm medium. For differentiation into macrophage-like cells, the cell density was adjusted to approximately 1×10^6 cells/mL. The cell suspension was mixed with 10 ng/mL PMA (Phorbol 12-myristate 13-acetate, Sigma) and distributed in volumes according to each experiment. Cells were incubated for 48 h, washed twice with medium and then cultured in medium for additional 48 h without PMA. For experimentation THP-1 macrophages were cultured in RPMI medium supplemented with 1% L-glutamine, 1% Penicillin/Streptomycin and 1% heat-inactivated chicken serum, at 5% CO2 and 37° C. […]
Beads phagocytosis was analyzed by flow cytometry (BD FACSCalibur) by quantification of the percentage of cells having ingested 2 or more beads.

In data set [1] the test system is CD68+ mononuclear phagocytes in the spiral ganglion. In words: Macrophage activation (CD68+ cells) in the spiral ganglion, animal model of antibiotic-induced hearing loss. It is filed as in vivo, mouse. The note with it: seven consecutive days. Here is the method: To determine the effect of 6′-sialyllactose on macrophage activation in the inner ear, one-week old C57BL/6 pubs of mice were treated subcutaneously with either 50 μl PBS, 50 μl of 200 mg/kgbw neomycin (Neo, Sigma, N5285) in PBS, or 50 μl of 200 mg/kgbw neomycin (Sigma, N5285) plus 100 mg/kgbw 6′-sialyllactose (Carbosynth, OS04398) in PBS or only PBS as vehicle control for seven consecutive days. Mice were sacrificed two weeks after the last injection.
For further investigations, cochleae of the mice were isolated, post-fixed in 4% paraformaldehyde (PFA), decalcified in 5% EDTA, incubated in 30% sucrose until fully soaked, embedded in a cryoprotectant and cut into 20 μm thin slices from the apex to the base of the cochlea with a cryostat. For quantification of the macrophage activation in the cochlea, cryosections from different levels of the cochlea were chosen and co-stained with antibodies against the macrophage activation marker CD68 and the cellular nuclei marker DAPI. […] The area of the spiral ganglion was selected and measured using ImageJ. The CD68-positive cells were counted within the chosen area and the cell density of the macrophage in the spiral ganglion was calculated and normalized to the PBS vehicle treated condition. Data were analyzed by one-way ANOVA with Bonferroni post-hoc correction.

The test system of data set [2] is sensory neurons in the spiral ganglion. In words: Sensory neuron density (NeuN+ cells) in the spiral ganglion, animal model of antibiotic-induced hearing loss. It is filed as in vivo, mouse. Particulars: seven consecutive days. On the procedure: One-week old C57BL/6 pubs of mice were treated subcutaneously with either 50 μl PBS, 50 μl of 200 mg/kgbw neomycin (Sigma, N5285) in PBS, or 50 μl of 200 mg/kgbw neomycin (Sigma, N5285) plus 100 mg/kgbw 6′-sialyllactose (Carbosynth, OS04398) in PBS for seven consecutive days. Mice were sacrificed 2 weeks after the last injection. For further investigations cochlea of the mice were isolated, post-fixed in 4% PFA, decalcified in 5% EDTA, incubated in 30% sucrose until fully soaked, embedded in a cryoprotectant and cut into 20 μm thin slices from the apex to base of the cochlea with a cryostat. For quantification of the sensory neurons in the cochlea, cryosections from different levels of the cochlea were chosen and stained with antibodies for neuronal nuclei (NeuN) and the cellular nuclei marker DAPI. Z-stacks of 3×2 μm images were taken with a confocal microscope and stacks were afterwards combined to maximal projection images. The area of the spiral ganglion was selected and measured using ImageJ.
The NeuN-positive cells of the mice treated with neomycin (Neo), neomycin plus 6′-sialyllactose (Neo+6SL) or vehicle control (PBS) within the chosen area were counted and the neuronal density of the spiral ganglion was calculated and normalized to the PBS treated condition. […] Data were analyzed by one-way ANOVA with Bonferroni post-hoc correction (*p<0.05).

The subject of data set [3] is hair cells of the middle turn of the cochlea. The data set is described as follows: Hair cell count (Myo7A+ cells) in the cochlea, animal model of antibiotic-induced hearing loss. It is filed as in vivo, mouse. Particulars: seven consecutive days. Here is the method:
One-week old BL6 pubs of mice were treated subcutaneously with either 50 μl PBS, 50 μl of 200 mg/kgbw neomycin (Sigma, N5285) in PBS, or 50 μl of 200 mg/kgbw neomycin (Sigma, N5285) plus 100 mg/kgbw 6′-sialyllactose (Carbosynth, OS04398) in PBS for seven consecutive days. Mice were sacrificed two weeks after the last injection. For further investigations cochlea of the mice were isolated, post-fixed in 4% PFA, decalcified in 5% EDTA, incubated in 30% sucrose until fully soaked, embedded in a cryoprotectant and cut into 20 μm thin slices from the apex to base of the cochlea with a cryostat. For quantification of the hair cell density in the cochlea, cryosections from different levels of the cochlea were chosen and co-stained with antibodies against the hair cell marker Myosin7A (Myo7A) and the cellular nuclei marker DAPI. Images were taken with a confocal microscope and divided into different sections from apex to base of the cochlea. Myosin7a-positive cells were counted in each section.

Data set [4] has as its system human iPS cell-derived sensory neurons co-cultured with human THP1-macrophages. The data set is described as follows: Neural branches length in co-culture of iPS cell-derived sensory neurons and THP1 macrophages. It is filed as cell-based. Particulars: neurons plus THP1 macrophages, 100 μM 6′-sialyllactose, 48 hours; vs co-culture without 6′-sialyllactose. On the procedure:
The effect of 6′-sialyllactose on sensory neural branches was determined in a human co-culture system with induced pluripotent stem cell derived sensory neurons and human THP1-macrophages.
Human sensory neurons were obtained from human induced pluripotent stem (iPS) cells. At day 0, the iPS colonies were detached by collagenase IV, collected by sedimentation, and resuspended in DMEM/F12 medium supplemented by 20% KO serum, 1% nonessential amino acids, 10 μM SB (SB-431542, inhibitor of TGF-beta), 1 μM dorsomorphin, 3 μM CHIR, and 0.5 μM purmorphamine for 2 days. […] Afterwards, the neural stem cells (NSCs) were ready for differentiation. […]
The human THP1 mononuclear phagocyte cell line was maintained in RPMI medium supplemented with 1% L-glutamine, 1% Penicillin/Streptomycin, 1% sodium-pyruvate, 1% heat-inactivated chicken serum, and 1% N2 supplement at 5% CO2 and 37° C. […] For experiments, THP-1 macrophages were scraped, counted and added to the sensory iPS cell-derived neurons in co-culture medium 1:1 ratio (N2B27 medium plus BDNF, GDNF, dbcAMP) and treated with 100 μM 6′-sialyllactose (Carbosynth), that was re-purified by a HPLC-based anion exchange chromatography before use, or vehicle control for another 48 hours. […]

The mark [5] stands for this setting: mice, 200 mg/kgbw neomycin alone s.c., vs PBS.

Entries after “also recorded” stand apart in the source; their conditions may differ.

For `CC(=O)NC1C(O)CC(OC2C(O)C(CO)OC(OC3C(CO)OC(O)C(O)C3O)C2O)(C(=O)O)OC1[C@H](O)[C@H](O)CO` (stereo partly drawn) [3′-sialyllactose, reference compound], in the data set on human THP-1 macrophages, the “relative beads phagocytosis rate (cells having ingested 2 or more beads)” value is on record as “had no effect on the LPS-induced uptake of beads; also recorded: only showed a tendency without significance”.
Regarding `NC[C@@H]1O[C@H](O[C@H]2[C@@H](O)[C@H](O[C@@H]3[C@@H](O)[C@H](N)C[C@H](N)[C@H]3O[C@H]3O[C@H](CN)[C@@H](O)[C@H](O)[C@H]3N)O[C@@H]2CO)[C@H](N)[C@@H](O)[C@@H]1O` [neomycin, reference compound], the “CD68+ cells per area in the spiral ganglion” value in data set [1] (setting [5]) was “strongly increases the number of mononuclear phagocytes”. The “NeuN-positive cells in the spiral ganglion” value in data set [2] (setting [5]) is reported as “reduction”. The “Myo7A-positive hair cells of the middle turn of the cochlear organ of Corti” value in data set [3] (setting [5]) is “strong reduction”.
Turning to “Neu5Ac-α(2→6)-Gal-β(1→4)-Glc [6′-sialyllactose]”, the “CD68+ macrophages per area in the spiral ganglion (macrophage activation), normalized to PBS” value in data set [1] (one-week old C57BL/6 mice, 200 mg/kgbw neomycin plus 100 mg/kgbw 6′-sialyllactose s.c., sacrificed two weeks after last injection, vs neomycin alone) is on record as “slight attenuation of macrophage activation; also recorded: might partially be prevented”. Further, in data set [2] (one-week old C57BL/6 mice, 200 mg/kgbw neomycin plus 100 mg/kgbw 6′-sialyllactose s.c., vs neomycin alone), the “NeuN-positive cells (neuronal density) in the spiral ganglion, normalized to PBS” value is on record as “less present; also recorded: might reduce the neomycin-induced loss of the sensory neurons”. Also, in data set [3] (one-week old BL6 mice, 200 mg/kgbw neomycin plus 100 mg/kgbw 6′-sialyllactose s.c., vs neomycin alone), the “Myo7A-positive hair cells of the middle turn of the cochlea per slice” value was “partially rescued; also recorded: reduced the neomycin-induced loss of the hair cells”. Also, the “relative beads phagocytosis rate (cells having ingested 2 or more beads)” value in the data set on human THP-1 macrophages is reported as “reduced the phagocytic uptake of microsphere beads; also recorded: reduced phagocytosis of beads”. Besides, the “relative neural branches length” value in data set [4] is on record as “could prevent the reduction in neural branches length”.
